Like-named read-outs stand apart in the source and are kept apart here.
Assays:
HCT116 cells [1] = assay: Colorectal cancer xenografts (HCT116) in NOD/SCID mice, tumor volume; format: in vivo; conditions: day 24
Description: When solid and palpable tumors with an average volume of 100-150 mm^3 were formed (at day 14), mice were randomly separated into four groups such that each group was treated either with negative control miRNA, miR-129 alone, 5-FU alone or miR-129 and 5-FU together. The miRNAs were complexed with siPORTamine and injected intratumorally while 5-FU (50 μg g^−1) was injected systemically via the tail vein. All injections were provided in 3-day intervals for a total of three times before the tumors were collected at day 24. […] Importantly, despite the overexpression, the expression levels of miR-129 copy number remained within the physiological range (less than 20 copies/cell based on cycle threshold value at 30, which is equal to the expression of miR-129 in normal colon mucosa). Moreover, the control tumor xenografts had no miR-129 expression (cycle threshold value at 35).
Ten-twelve week old NOD/SCID mice (Jackson Laboratories, Bar Harbor, […]., USA) were used for tumor implantation. All animal procedures were approved by the Stony Brook University Institutional Animal Care and Use Committee (IACUC). The tumor implantation and miRNA injection protocol was modified from Trang et al. (see Trang P., et al., Oncogene. (2010) 29(11):1580-7). The mice were anesthetized by isoflurane inhalation. HCT116 cells were subcutaneously injected into the lower back areas of the mice using 2.5×10^6 cells in 100 μl McCoy's 5A with 50% matrigel (BD Biosciences). The tumor size was measured using a caliper and tumor volume was calculated using the formula V=length×width^2/2. When tumor volumes reach 100-150 mm^3 at day 14 post-injection, the mice were randomly assigned into four groups. For the first two groups, 10 μM negative miRNA or miR-129 precursor (Ambion) complexed with 1.6 μl siPORTAmine (Ambion) in 50 μl McCoy's 5A was injected into the tumors every three days. For the third group, 5-FU (Sigma-Aldrich) was injected at 50 μg/g via the tail vein every three days. Finally, for the last group, both miR-129 precursor and 5-FU were injected as described above. The mice were euthanized on day 24 post-injection by CO2 inhalation, and tumors were dissected out for RNA isolation.

HCT116 cells [2] = assay: 5-FU treatment and cytotoxicity assay (WST-1); format: cell-based; conditions: Homo sapiens, HCT-116, 72 h, read-out: IC50 (50% growth inhibition, WST-1)
Description: Twenty-four hours after transfection, HCT116 cells were plated in 96-well plates at 2×10^3 cells per well in triplicates in 100 μl of medium. After 24 hours, fresh medium containing 5-FU alone (ranged from 1 to 4 μM) or miR-129 precursor alone (ranged from 10 nM to 40 nM) or 5-FU and miR-129 together (at a constant ratio 1:10, with increasing concentrations of both compounds) were added, and cells were cultured for an additional 72 hours. Cell viability was measured using the WST-1 assay, and concentration-dependent curves were generated based on the cell viability. The combination index was calculated by CompuSyn software. See, Chou T C et al. (2007).

In the case of `O=c1[nH]cc(F)c(=O)[nH]1` [5-FU, 5-fluoro-1H-pyrimidine-2,4-dione, reference compound], the “inhibition of tumor growth (in words)” value (HCT116 cells [1]; HCT116 xenograft, compared with negative miRNA or single agents) is reported as “strong inhibitory effect”, the “average tumor volume, % of the control group” value (HCT116 cells [1]; treated days 14, 17, 20, miRNA intratumoral with siPORTamine, 5-FU 50 μg/g tail vein, control negative miRNA) is reported as 48.4% and the IC50 (HCT116 cells [2]; 5-FU alone) is reported as 2300 nM. It also gave an IC50 (HCT116 cells [2]; 5-FU when combined with miR-129 (fixed ratio 1:10)) of 600 nM.

— patent US10697020B2, “MicroRNA-129 as a biomarker for colorectal cancer” (THE RESEARCH FOUNDATION FOR THE STATE UNIVERSITY OF NEW YORK, priority 2013, dated 2020)
